The results in this text go back to patent publication US20180036332A1 (Chongqing Institute of Bench-to Bed Bioengineering …, priority 2015, published 2018).

For assay [1], the system named is primary endothelial cells HUVEC. Briefly: MTT cell viability assay of primary endothelial cells HUVEC in low glucose and hypoxia environment. Format: cell-based. Particulars: 48 hours. (In general: Tetrazolium dyes change colour on reduction, which living cells bring about.)
Details of assay [2]: species or system rats. Particulars: rat, in vivo.

As to “Nicotinamide adenine dinucleotide phosphate [NADPH]”, the “survival rate of HUVEC cells” value in assay [1] (5 μM NADPH, p<0.05) is reported as “around 65.3%”; in assay [1] (10 μM NADPH, p<0.01), “around 73.6%”; in assay [1] (20 μM NADPH, p<0.01) it was “around 70.9%”. Moreover, in assay [2], the “range of myocardial infarction (weight % of ischemic infarct zone in total ischemic myocardial zone)” value was “significantly reduces the range of myocardial infarction”.
